Counter-ions that a name gives are not always drawn.

This note sets out measurements from patent US11970448B2, “Monomers capable of dimerizing in an aqueous solution, and methods of using same” (CORNELL UNIVERSITY, priority 2011, dated 2024).

The target in the first experiment is T1, recominbant human tryptase, beta, from lung (Homo sapiens, UniProt P20231).
T1 construct: purchased Promega or Enzo Life Sciences G5631 or BML-SE418
T1 sequence (P20231 31-275): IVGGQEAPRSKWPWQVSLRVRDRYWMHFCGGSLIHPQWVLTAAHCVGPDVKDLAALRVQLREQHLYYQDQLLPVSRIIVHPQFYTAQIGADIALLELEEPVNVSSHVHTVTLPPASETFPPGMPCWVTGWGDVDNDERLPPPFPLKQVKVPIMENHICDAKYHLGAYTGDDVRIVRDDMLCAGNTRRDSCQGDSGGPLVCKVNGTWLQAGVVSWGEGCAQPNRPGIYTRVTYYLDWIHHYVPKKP
The experiment in a line: Inhibition of tryptase activity by monomers and multimers (Boc-Gln-Ala-Arg-AMC fluorescence). Format: biochemical. The note with it: monomers against tryptase, Table 5; read-out: Monomer IC50 range. The protocol:
Stock solutions of recominbant human tryptase, beta, from lung (Promega: catalog number G5631, or Enzo Life Sciences: catalog number BML-SE418) were made at 30 μM, in solution with 5 μM heparin sulfate and 1 M NaCl. Monomer tryptase inhibitor stock solutions were made at 50 mM in DMSO. Test substance plates were made at 1.2× the final concentration in assay buffer (50 mM HEPES, 150 mM NaCl, 100 μM EDTA, pH 7.4, 0.02% Tween-20). A final concentration of 1 nM tryptase was used. When required, test substances were diluted in water immediately before use in 10-fold serial dilutions. After the indicated incubation time, the test subtance-tryptase solution at 1.2× concentration, was diluted into assay buffer containing a final concentration of 200 μM N-tert-butoxycarbonyl-Gln-Ala-Arg-AMC HBr [AMC=7-amino-4-methylcoumarin] (Boc-Gln-Ala-Arg-AMC; Enzo Life Sciences: catalog number BML-P237) to a final volume of 50 μl in black opaque round bottom 96 well plates (Corning, catalog number 3792). The release of fluorescent AMC was immediately measured every 30 seconds over 15-30 minutes at an excitation wavelength of 367 nm, monitoring emission at 468 nm on a Spectramax M5 (Molecular Devices) microplate reader. The Softmax Pro (Molecular Devices) and Graphpad prism software were used to determine Vmax, and concentration-response curve IC50s, respectively.
Turning to `NCc1ccc(C(=O)NCc2ccc(OCC(=O)N3C[C@H](O)[C@@H](O)C3)cc2)cc1` [CF1, 4-(aminomethyl)-N-(4-(2-((3S,4S)-3,4-dihydroxypyrrolidin-1-yl)-2-oxoethoxy)benzyl)benzamide hydrochloride], the IC50 lay in the range of 10000 to 65000 nM.

Take `NCc1cccc(C2CCN(C(=O)c3ccc(Cl)c(Cl)c3)CC2)c1` [CF5, (4-(3-(aminomethyl)phenyl)piperidin-1-yl)(3,4-dichlorophenyl)methanone]: the IC50 was 0.1 to 1000 nM.

Turning to `NCc1ccc(C(=O)NCc2ccc(OCC(=O)N3C[C@@H](O)[C@H](O)C3)cc2)cc1` [CF6, 4-(aminomethyl)-N-(4-(2-((3R,4R)-3,4-dihydroxypyrrolidin-1-yl)-2-oxoethoxy)benzyl)benzamide hydrochloride], the IC50 is 10000 to 65000 nM.

Consider `NCc1ccc(C(=O)NCc2ccc(OCC(=O)N3CC(=O)[C@H](O)C3)cc2)cc1` [CF7, (R)-4-(aminomethyl)-N-(4-(2-(3-hydroxy-4-oxopyrrolidin-1-yl)-2-oxoethoxy)benzyl)benzamide hydrochloride], for which the IC50 was in the range of 1000 to 10000 nM.

As for `NCc1ccc(C(=O)NCc2ccc(OCCC(=O)N3CC(=O)[C@@H](O)C3)cc2)cc1` [CF10, (S)-4-(aminomethyl)-N-(4-(3-(3-hydroxy-4-oxopyrrolidin-1-yl)-3-oxopropoxy)benzyl)benzamide hydrochloride], the IC50 is 10000 to 65000 nM.

`NCc1ccc(C(=O)NCc2ccc(OCCC(=O)N3CC(=O)[C@H](O)C3)cc2)cc1` [CF12, (R)-4-(aminomethyl)-N-(4-(3-(3-hydroxy-4-oxopyrrolidin-1-yl)-3-oxopropoxy)benzyl)benzamide hydrochloride]: the IC50 is 1000 to 10000 nM.

`NCc1ccc(CNC(=O)N2CCN(C(=O)CNC(=O)C(O)CO)CC2)cc1` (stereo not drawn) [CF13, N-(4-(aminomethyl)benzyl)-4-(2-(2,3-dihydroxypropanamido)acetyl)piperazine-1-carboxamide hydrochloride]: the IC50 lay in the range of 1000 to 10000 nM.

On to `NCc1ccc2c(c1)C1(CCN(C(=O)c3ccc(OCC(O)CO)cc3)CC1)CO2` (stereo not drawn) [CF15, (5-(aminomethyl)-2H-spiro[benzofuran-3,4′-piperidine]-1′-yl)(4-(2,3-dihydroxypropoxy)phenyl)methanone hydrochloride], for which the IC50 was 1000 to 10000 nM.

`NCc1cccc(C2CCN(C(=O)c3cccc(NC(=O)NCC(O)C(F)(F)F)c3)CC2)c1` (stereo not drawn) [CF17, 1-(3-(4-(3-(aminomethyl)phenyl)piperidine-1-carbonyl)phenyl)-3-(3,3,3-trifluoro-2-hydroxypropyl)urea hydrochloride]: the IC50 was in the range of 0.1 to 1000 nM.

As to `NCc1ccc(CNC(=O)N2CCN(C(=O)CNC(=O)C(=O)CO)CC2)cc1` [CF20, N-(4-(aminomethyl)benzyl)-4-(2-(3-hydroxy-2-oxopropanamido)acetyl)piperazine-1-carboxamide], the IC50 lay within 0.1 to 1000 nM.

Regarding `NCc1ccc2c(c1)C1(CCN(C(=O)c3ccc(O)c(O)c3)CC1)CO2` [T2SPIRO, (5-(aminomethyl)-2H-spiro[benzofuran-3,4′-piperidine]-1′-yl)(3,4-dihydroxyphenyl)methanone], the IC50 was 0.1 to 1000 nM.

For the compound `NCc1ccc(F)c(C2CCN(C(=O)c3cccc4ccc(B(O)O)cc34)CC2)c1` [T11F, 8-(4-(5-(aminomethyl)-2-fluorophenyl)piperidine-1-carbonyl)naphthalen-2-ylboronic acid], the IC50 was 1000 to 10000 nM.

In the case of `NCc1cccc(C2CCN(C(=O)c3cccc(/C=C/B(O)O)c3)CC2)c1` [T14, (E)-3-(4-(3-(aminomethyl)phenyl)piperidine-1-carbonyl)styrylboronic acid], the IC50 was 0.1 to 1000 nM.

For `NCc1cccc(C2CCN(C(=O)c3cccc(NC(=O)C(O)C4(O)CCC4)c3)CC2)c1` (stereo not drawn) [T21 (Diol), N-(3-(4-(3-(aminomethyl)phenyl)piperidine-1-carbonyl)phenyl)-2-hydroxy-2-(1-hydroxycyclobutyl)acetamide], the IC50 is 0.1 to 1000 nM.

The same experiment, now with this note: monomers against tryptase, entry marked (1:10); read-out: IC50 range group of additional monomers marked (1:10).
Take `C[C@@]1(O)CN(c2cccc(C(=O)N3CCC(c4cccc(CN)c4)CC3)c2)C(=O)[C@@H]1O` [CMI9317, 1-{^3-[^4-(3-aminomethyl-phenyl)-piperidine-1-carbonyl]-phenyl}-3,4-dihydroxy-4-methyl-pyrrolidin-2-one hydrochloride]: the IC50 lay in the range of 0.1 to 1000 nM.

With `C[C@]1(O)CN(c2cccc(C(=O)N3CCC(c4cccc(CN)c4)CC3)c2)C(=O)[C@H]1O` [CMI9321, 1-{3-[4-(3-aminomethyl-phenyl)-piperidine-1-carbonyl]-phenyl}-3,4-dihydroxy-4-methyl-pyrrolidin-2-one hydrochloride], the IC50 lay within 0.1 to 1000 nM.

The same experiment, now with this note: monomers against tryptase; read-out: IC50 range group of additional monomers (boronic acid, benzooxaborole, ligands).
Regarding `NCc1cccc(C2CCN(C(=O)c3cccc(NC(=O)C4CC5CC4C(O)C5O)c3)CC2)c1` (racemic) [T139RACEENDO, (±) endo-N-(3-(4-(3-(aminomethyl)phenyl)piperidine-1-carbonyl)phenyl)-5,6-syn-dihydroxybicyclo[2.2.1]heptane-2-carboxamide], the IC50 lay within 1000 to 10000 nM.

In the case of `NCc1cccc(C2CCN(C(=O)C3CC4CC3C(O)C4O)CC2)c1` (racemic) [T140RACEENDO, (±) endo (4-(3-(aminomethyl)phenyl)piperidin-1-yl)-(5,6-syn-dihydroxybicyclo[2.2.1]heptan-2-yl)methanone], the IC50 fell in the range of 1000 to 10000 nM.

Consider `NCc1cccc(C2CCN(C(=O)c3cccc(NC(=O)C4CC5CCC4C(O)C5O)c3)CC2)c1` (racemic) [T141ENDOANTI, (±) endo-N-(3-(4-(3-(aminomethyl)phenyl)piperidine-1-carbonyl)phenyl)-5,6-anti-dihydroxybicyclo[2.2.2]octane-2-carboxemide.], for which the IC50 lay within 0.1 to 1000 nM.

For `NCc1cccc(C2CCN(C(=O)c3cccc(NC(=O)C4CC5CCC4C(O)C5O)c3)CC2)c1` (racemic) [T141EXOANTI, (±) exo-N-(3-(4-(3-(aminomethyl)phenyl)piperidine-1-carbonyl)phenyl)-5,6-anti-dihydroxybicyclo[2.2.2]octane-2-carboxamide.], the IC50 lay within 1000 to 10000 nM.

`NCc1cccc(C2CCN(C(=O)c3cccc(NC(=O)C4CC5CCC4C(O)C5O)c3)CC2)c1` (racemic) [T141EXOSYN, (±) exo-N-(3-(4-(3-(aminomethyl)phenyl)piperidine-1-carbonyl)phenyl)-5,6-syn-dihydroxybicyclo[2.2.2]octane-2-carboxamide.]: the IC50 is 1000 to 10000 nM.

Turning to `NCc1cccc(C2CCN(C(=O)C3CC4CCC3C(O)C4O)CC2)c1` (racemic) [T142ENDOANTI, (±) endo (4-(3-(aminomethyl)phenyl)piperidin-1-yl)(-5,6-anti-dihydroxybicyclo[2.2.2]octan-2-yl)methanone], the IC50 lay within 0.1 to 1000 nM.

Turning to `NCc1cccc(C2CCN(C(=O)C3CC4CCC3C(O)C4O)CC2)c1` (racemic) [T142ENDOSYN, (±) endo (4-(3 (aminomethyl)phenyl)piperidin-1-yl)(-5,6-syn-dihydroxybicyclo[2.2.2]octan-2-yl)methanone], the IC50 was in the range of 10000 to 65000 nM.

Turning to `NCc1cccc(C2CCN(C(=O)C3CC4CCC3C(O)C4O)CC2)c1` (racemic) [T142EXOANTI, (±) endo (4-(3 (aminomethyl)phenyl)piperidin-1-yl)(-5,6-anti-dihydroxybicyclo[2.2.2]octan-2-yl)methanone], the IC50 is 10000 to 65000 nM.

Take `NCc1ccc2c(c1)C1(CCN(C(=O)c3ccc(O)c(O)c3)CC1)CO2` [T2SPIRO, (5-(aminomethyl)-2H-spiro[benzofuran-3,4′-piperidine]-1′-yl)(3,4-dihydroxyphenyl)methanone]: the IC50 lay within 0.1 to 1000 nM.

Turning to `NCc1ccc(F)c(C2CCN(C(=O)c3cccc4ccc(B(O)O)cc34)CC2)c1` [T11F, 8-(4-(5-(aminomethyl)-2-fluorophenyl)piperidine-1-carbonyl)naphthalen-2-ylboronic acid], the IC50 lay within 1000 to 10000 nM.

Regarding `NCc1cccc(C2CCN(C(=O)c3cccc(NC(=O)C(O)C4(O)CCC4)c3)CC2)c1` (stereo not drawn) [T21 (Diol), N-(3-(4-(3-(aminomethyl)phenyl)piperidine-1-carbonyl)phenyl)-2-hydroxy-2-(1-hydroxycyclobutyl)acetamide], the IC50 was in the range of 0.1 to 1000 nM.

The IC50 is the midpoint of a concentration-inhibition curve.
